Reference: patent US6362369B1, “Phthalic acid diamide derivatives fluorine-containing aniline compounds as starting material, agricultural and horticultural insecticides, and a method for application of the insecticides” (Nihon Nohyaku Co., Ltd., priority 1997, dated 2002)

system: diamondback moth (Plutella xylostella); test: Insecticidal effect on diamondback moth (Test Example 1); type: in vivo; conditions: diamondback moth; judged by the criterion of Test Example 1
Summary of the method: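 Triplicate groups of 10 insects were scored: six days after immersion of oviposited Chinese cabbage seedlings and holding at 25 °C post air-drying, hatched larvae were counted. Mortality derived from these counts and insecticidal effect judged by a set criterion.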

SMILES | Insecticidal effect (Test Example 1), judged from mortality
Cc1cc(C(F)(F)C(F)(F)F)ccc1NC(=O)c1c(Cl)cccc1C(=O)NCc1ccccc1F [compound 1469] | A (100)
Cc1cc(NC(=O)c2cccc(I)c2C(=O)NC(C)C)c(Br)cc1C(F)(C(F)(F)F)C(F)(F)F [compound 1698] | A (100)
Cc1cc(C(F)(F)C(F)(F)F)ccc1NC(=O)c1c(Cl)cccc1C(=O)N[C@@H](CO)c1ccccc1 [compound 1443] | A (100)
CCNC(=O)c1cccc(F)c1C(=O)Nc1ccc(C(F)(F)C(F)(F)F)cc1F [compound 1511] | A (100)
Cc1cc(C(F)(C(F)(F)F)C(F)(F)F)ccc1NC(=O)c1cccc([S+]([O-])C(F)(F)F)c1C(=O)NC(C)C (centres unmarked) [compound 1805] | A (100)
CCCNC(=O)c1cccc(F)c1C(=O)Nc1ccc(C(F)(F)C(F)(F)F)cc1F [compound 1513] | A (100)

same assay, conditions: diamondback moth; judged by the mortality criterion of Test Example 1

SMILES | Insecticidal effect, Test Example 1
CC(C)NC(=O)c1ccccc1C(=O)Nc1ccc(SC(F)(F)C(F)(F)Br)cc1 [compound 37] | A (100)
CC(C)NC(=O)c1cc(Cl)ccc1C(=O)Nc1ccccc1 [compound 168] | A (100)
Cc1cc(Oc2c(F)c(F)c(F)c(F)c2F)ccc1NC(=O)c1ccccc1C(=O)NC(C)C [compound 73] | A (100)
CC(C)NC(=O)c1c(Cl)cccc1C(=O)Nc1ccc(C(C)(C)C)cc1 [compound 88] | A (100)
CC(C)NC(=O)c1cc(Cl)ccc1C(=O)Nc1ccc(F)c(F)c1 [compound 174] | A (100)
Cc1ccc(F)cc1NC(=O)c1ccc(Cl)cc1C(=O)NC(C)C [compound 179] | A (100)
Cc1c(NC(=O)c2c(Cl)cccc2C(=O)NC(C)C)cccc1OC(F)(F)C(F)Cl (centres unmarked) [compound 240] | A (100)
CC(C)NC(=O)c1ccccc1C(=O)Nc1cc(Cl)c(OC(F)F)c(Cl)c1 [compound 84] | A (100)
Cc1cc(Cl)ccc1NC(=O)c1c(I)cccc1C(=O)NC(C)C [compound 428] | A (100)
Cc1c(Cl)ccc(NC(=O)c2c(Br)cccc2C(=O)NC(C)C)c1C [compound 308] | A (100)
CC(C)NC(=O)c1ccccc1C(=O)Nc1ccccc1 [compound 20] | A (100)
CC(C)NC(=O)c1c(Cl)cccc1C(=O)Nc1ccc(SCC(F)(F)F)cc1 [compound 101] | A (100)
CC(C)NC(=O)c1ccc(Cl)cc1C(=O)Nc1cccc(Cl)c1Cl [compound 186] | D (79-50)
CC(=O)c1ccc(NC(=O)c2c(Cl)cccc2C(=O)NC(C)C)cc1 [compound 207] | A (100)
CC(C)NC(=O)c1ccccc1C(=O)Nc1ccc(SCC(F)(F)F)cc1 [compound 33] | A (100)
Cc1cc(Cl)ccc1NC(=O)c1cc(Cl)ccc1C(=O)NC(C)C [compound 190] | A (100)

same assay, conditions: diamondback moth; mortality judged by criterion of Test Example 1

SMILES | Insecticidal effect, Test Example 1
Cc1ccc(CNC(=O)c2cccc(Cl)c2C(=O)Nc2ccc(C(F)(F)C(F)(F)F)cc2C)cc1 [compound 1342] | A (100)
Cc1cc(OC(F)(F)F)ccc1NC(=O)c1ccc(F)c(F)c1C(=O)NC(C)C [compound 1283] | A (100)
CCCONC(=O)c1c(Cl)cccc1C(=O)Nc1ccc(C(F)(F)C(F)(F)F)cc1C [compound 1327] | A (100)
Cc1cc(C(F)(F)C(F)(F)F)ccc1NC(=O)c1ccccc1C(=O)NCC(O)Cc1ccccc1 (centres unmarked) [compound 1398] | A (100)
C=CCNC(=O)c1cccc(I)c1C(=O)Nc1ccc(C(F)(F)C(F)(F)F)cc1C [compound 988] | A (100)
CC(C)(C)NC(=O)c1ccccc1C(=O)Nc1ccc2c(c1)OC(F)(F)C(F)(F)O2 [compound 1065] | A (100)
Cc1cc(C(F)(F)C(F)(F)F)ccc1NC(=O)c1cccc(Cl)c1C(=O)NCCOc1ccc(Cl)cc1 [compound 1372] | A (100)
Cc1cc(C(F)(F)C(F)(F)F)ccc1NC(=O)c1cccc(Cl)c1C(=O)NCCOc1ccccc1Cl [compound 1368] | A (100)
Cc1ccccc1CNC(=O)c1cccc(Cl)c1C(=O)Nc1ccc(C(F)(F)C(F)(F)F)cc1C [compound 1338] | A (100)
Cc1cc(C(F)(F)C(F)(F)F)ccc1NC(=O)c1c(Cl)cccc1C(=O)NC(C)c1ccccc1 (centres unmarked) [compound 1322] | A (100)
CCN(CC)C(=O)c1c(OC(F)(F)F)cccc1C(=O)Nc1ccc(C(F)(C(F)(F)F)C(F)(F)F)cc1C [compound 1238] | A (100)
CCOCCNC(=O)c1cccc(I)c1C(=O)Nc1ccc(C(F)(F)C(F)(F)F)cc1C [compound 984] | A (100)
CCCONC(=O)c1cccc(Cl)c1C(=O)Nc1ccc(C(F)(F)C(F)(F)F)cc1C [compound 1328] | A (100)
CCN(CC)C(=O)c1c(I)cccc1C(=O)Nc1ccc2oc(-c3ccc(C(F)(F)F)cc3)nc2c1 [compound 1175] | A (100)
Cc1cc(OC(F)F)ccc1NC(=O)c1cccc(Cl)c1C(=O)NCc1ccccc1Cl [compound 1423] | A (100)
Cc1cc(C(F)(F)C(F)(F)F)ccc1NC(=O)c1c(I)cccc1C(=O)NCc1ccccc1 [compound 1401] | A (100)
Cc1cc(C(F)(F)C(F)(F)F)ccc1NC(=O)c1cccc(Cl)c1C(=O)NCCc1ccccc1 [compound 1319] | A (100)
COc1cccc(CNC(=O)c2cccc(Cl)c2C(=O)Nc2ccc(C(F)(F)C(F)(F)F)cc2C)c1 [compound 1346] | A (100)
Cc1ccc(CNC(=O)c2c(Cl)cccc2C(=O)Nc2ccc(C(F)(F)C(F)(F)F)cc2C)cc1 [compound 1341] | A (100)
CCN(CC)C(=O)c1c(I)cccc1C(=O)Nc1ccc2nc(-c3ccccc3C(F)(F)F)oc2c1 [compound 1178] | A (100)

same assay, conditions: mortality judged according to the criterion shown in Test Example 1

SMILES | Insecticidal effect on diamondback moth (Test Example 1), judged grade
COc1ccc(NC(=O)c2cccc([N+](=O)[O-])c2C(=O)NC(C)C)cc1 [compound 614] | A (100)
CC(C)NC(=O)c1c(C(=O)Nc2cc(F)ccc2F)cccc1[N+](=O)[O-] [compound 640] | A (100)
CC(C)NC(=O)c1cccc(F)c1C(=O)Nc1cc(Cl)c(OC(F)F)c(Cl)c1 [compound 560] | A (100)
Cc1cc(C(F)(F)F)ccc1NC(=O)c1c(C(=O)NC(C)C)cccc1[N+](=O)[O-] [compound 742] | A (100)
Cc1cc(Oc2c(F)c(F)c(F)c(F)c2F)ccc1NC(=O)c1cccc(F)c1C(=O)NC(C)C [compound 520] | A (100)
CC(C)NC(=O)c1c(C(=O)Nc2ccc(F)cc2F)cccc1[N+](=O)[O-] [compound 639] | A (100)
Cc1cccc(NC(=O)c2cccc([N+](=O)[O-])c2C(=O)NC(C)C)c1 [compound 600] | A (100)
CC(C)NC(=O)c1c(C(=O)Nc2ccc(SC(F)(F)C(F)F)cc2)cccc1[N+](=O)[O-] [compound 626] | A (100)
CCOC(CNC(=O)c1c(C(=O)Nc2ccc(OC(F)F)cc2C)cccc1[N+](=O)[O-])OCC [compound 875] | A (100)
CC(C)NC(=O)c1cccc(F)c1C(=O)Nc1ccc(SC(F)(F)C(F)F)cc1 [compound 540] | A (100)
CC(C)NC(=O)c1cccc(Cl)c1C(=O)Nc1ccc(C=C(Br)Br)cc1 [compound 914] | A (100)
CC(C)NC(=O)c1c(F)cccc1C(=O)Nc1cc(Cl)c(OC(F)F)c(Cl)c1 [compound 506] | A (100)
Cc1ccc(Cl)cc1NC(=O)c1cccc([N+](=O)[O-])c1C(=O)NC1CCC1 [compound 854] | A (100)
CC(C)NC(=O)c1c(C(=O)Nc2ccc(SCC(F)(F)F)cc2)cccc1[N+](=O)[O-] [compound 624] | A (100)
CC(C)NC(=O)c1c(C(=O)Nc2cccc(Br)c2)cccc1[N+](=O)[O-] [compound 590] | A (100)
CC(C)NC(=O)c1c(C(=O)Nc2ccc3c(c2)OCO3)cccc1[N+](=O)[O-] [compound 733] | A (100)
O=C(Nc1ccc(C(F)(F)F)cc1)c1ccccc1C(=O)NC1CC1 [compound 848] | A (100)
Cc1ccc(NC(=O)c2cccc([N+](=O)[O-])c2C(=O)NC(C)C)cc1 [compound 601] | A (100)
CC(C)NC(=O)c1c(C(=O)Nc2ccc(Cl)cc2)cccc1[N+](=O)[O-] [compound 588] | A (100)
Cc1cc(Oc2c(F)c(F)c(F)c(F)c2F)ccc1NC(=O)c1c(I)cccc1C(=O)NC(C)C [compound 459] | A (100)
COc1cccc(NC(=O)c2cccc([N+](=O)[O-])c2C(=O)NC(C)C)c1 [compound 613] | A (100)
CCC(CC)NC(=O)c1c(C(=O)Nc2ccc(OC(F)F)cc2C)cccc1[N+](=O)[O-] [compound 845] | A (100)
CC(C)NC(=O)c1cccc(I)c1C(=O)Nc1cc(Cl)c(OC(F)F)c(Cl)c1 [compound 449] | A (100)
